Activity calls are given as the source filed them. No rule for the calls is given here.
Molecular target: Nuclear receptor ROR-alpha (Homo sapiens) (UniProt P35398)
Assay: inhibitors of orphan receptor RORA, dose response, cell-based (AID 610)
Conditions: cell-based RORA reporter, inhibition

Chain of Nuclear receptor ROR-alpha (Homo sapiens) (P35398 whole entry, looked up): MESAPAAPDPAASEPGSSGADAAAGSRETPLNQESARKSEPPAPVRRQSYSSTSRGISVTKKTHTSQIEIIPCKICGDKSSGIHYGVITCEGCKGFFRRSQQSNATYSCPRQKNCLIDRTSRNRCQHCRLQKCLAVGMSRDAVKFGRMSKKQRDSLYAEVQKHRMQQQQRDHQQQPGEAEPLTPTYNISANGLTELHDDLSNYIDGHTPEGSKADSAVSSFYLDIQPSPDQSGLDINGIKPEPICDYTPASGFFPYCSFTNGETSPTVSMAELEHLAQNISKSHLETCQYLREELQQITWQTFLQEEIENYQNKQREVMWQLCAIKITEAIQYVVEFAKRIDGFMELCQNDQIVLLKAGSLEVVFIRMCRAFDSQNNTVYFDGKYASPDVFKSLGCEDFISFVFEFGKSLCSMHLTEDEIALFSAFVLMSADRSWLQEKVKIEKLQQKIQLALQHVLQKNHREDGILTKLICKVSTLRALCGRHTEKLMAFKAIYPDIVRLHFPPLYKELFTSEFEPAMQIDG

SMILES	IC50
O=C(O)CCCCCN1C(=O)CSC1=S	> 99000 nM (inactive)
CC(=O)CC1OC(=O)C(Br)=C1NCc1ccccc1 (centres undefined)	inactive
O=C(/C=C\Nc1ccc2c(c1)OCO2)c1ccccn1	1520 nM
O=S(=O)(c1ccc2c(c1)C(=NO)c1cc(S(=O)(=O)N3CCCCC3)ccc1-2)N1CCCCC1	2480 nM

Other lines, results leading:

IC50	SMILES
6230 nM	COC(=O)C1=C(CN2CCCc3ccccc32)NC(=O)NC1c1ccc(F)cc1 (centres undefined)
4560 nM	COc1cccc2sc(Nc3nc(-c4ccccn4)cs3)nc12
670 nM	COc1cc(/C=N/O)ccc1OCc1ccc(C(=O)O)cc1
8350 nM	O=C(/C=C\Nc1ccccn1)c1ccc(Cl)cc1
2090 nM	Cc1ccc(C(=O)/C=C/Nc2ccccn2)cc1

From PubChem BioAssay AID610 (The Scripps Research Institute Molecular Screening Center, 2007)
